Data taken from US4322540A, “Substituted 4,5,6,7-tetrahydro-1H (or 2H)-indazoles” (Eli Lilly and Company, priority 1981, dated 1982).
Counter-ions that a name gives are not always drawn.

Experiments:
[1] = tested on: nigro-neostriatal-lesioned rats; experiment: Turning behavior in 6-hydroxy-dopamine-lesioned rats (dopamine agonist activity); type: in vivo, rat; details: intraperitoneal; for Percent of rats exhibiting turning behavior: 15-minute period after latency; for Number of turns (average): counted over 15-minute period
Procedure: In this test, nigro-neostriatal-lesioned rats, prepared by the procedure of Ungerstedt and Arbuthnott, Brain Res, 24, 485 (1970) are employed. A compound having dopamine agonist activity, upon injection, causes the rats to turn in circles contralateral to the side of the lesion. After a latency period, which varies from compound to compound, the number of turns is counted over a 15-minute period. The compounds are dissolved in water and the resulting aqueous solution injected into the rat by the intraperitioneal route at a series of dose levels.

[2] = tested on: prolactin; experiment: Inhibition of prolactin secretion in reserpine-treated rats; type: in vivo, adult male rats of the Sprague-Dawley strain; details: intraperitoneal, serum one hour after treatment, reserpine-treated male rats
Procedure: The compounds of this invention are also useful as prolactin inhibitors and as such can be employed in the treatment of inappropriate lactation, such as postpartum lactation and galactorrhea.
Adult male rats of the Sprague-Dawley strain weighing about 200 g. were housed in an air-conditioned room with controlled lighting (lights on 6 a.m.-8 p.m.) and fed lab chow and water ad libitum. Each rat received an intraperitioneal injection of 2.0 mg. of reserpine in aqueous suspension 18 hours before administration of the indazole. The purpose of the reserpine was to keep prolactin levels uniformly elevated. The compounds under test were dissolved in water and were injected intraperitioneally at doses ranging from 5 mg/kg down to […]. Each compound was administered at each dose level to a group of 10 rats, and a control group of 10 intact males received an equivalent amount of solvent. One hour after treatment all rats were killed by decapitation, and 150 μl aliquots of serum were assayed for prolactin.
The difference between the prolactin level of the treated rats and prolactin level of the control rats divided by the prolactin level of the control rats gives the percent inhibition of prolactin secretion attributable to the compounds of this invention. In the table, column 1 gives the name of the compound; and columns 2-4 the percent prolactin inhibition at the given dose level.

[3] = tested on: mouse; experiment: Acute toxicity (LD50) by the intraperitoneal route in the mouse; type: in vivo
Procedure: In using the compounds of this invention to inhibit prolactin secretion or to treat Parkinson's syndrome or for other pharmacologic action, a compound according to Formulas I and II above, or a salt thereof with a pharmaceutically-acceptable acid, is administered to a subject suffering from Parkinsonism, or in need of having their prolactin level reduced, in an amount effective to alleviate some of the symptoms of Parkinsonism or to reduce an elevated prolactin level. Oral administration is preferred. If parenteral administration is used, the injection is preferably by the subcutaneous route using an appropriate pharmaceutical formulation. […] In particular, with intravenous or intramuscular administration, a water soluble pharmaceutically-acceptable salt is employed. For oral administration, a compound according to Formulas I and II either as the free base or in the form of a salt thereof can also be mixed with standard pharmaceutical excipients and loaded into empty telescoping gelatin capsules or pressed into tablets. The oral dosage should be in the range 0.01-10 mg/kg of mammalian body weight and the parenteral dose in the range 0.0025 to 2.5 mg/kg. The LD50 of dl-5-di(n-propyl)amino-4,5,6,7-tetrahydro-1H(and 2H)-indazole dihydrochloride is between 100 and 300 mg/kg by the intraperitoneal route in the mouse.

Row | SMILES | Percent of rats exhibiting turning behavior ([1]; 1 mg/kg) | Number of turns (average) ([1]; 1 mg/kg) | Percent Inhibition of Prolactin ([2]; 5 mg/kg) | Percent Inhibition of Prolactin ([2]; 50 mcg/kg) | Percent Inhibition of Prolactin ([2]; 500 mcg/kg) | Percent of rats exhibiting turning behavior ([1]; 100 mcg/kg) | Number of turns (average) ([1]; 100 mcg/kg) | Lethality ([3]; 10 mg/kg) | Lethality ([3]; 30 mg/kg) | Side effects ([3]; 30 mg/kg) | Percent of rats exhibiting turning behavior ([1]; 250 mcg/kg) | Number of turns (average) ([1]; 250 mcg/kg)
1 | NC1CCc2[nH]ncc2C1 (racemic) [dl-5-Amino-4,5,6,7-tetrahydro-1H-indazole dihydrochloride and dl-5-amino-4,5,6,7-tetrahydro-2H-indazole dihydrochloride] | 33% | 7 turns |  |  |  |  |  |  |  |  |  | 
2 | CN(C)C1CCc2[nH]ncc2C1 (racemic) [dl-5-Dimethylamino-4,5,6,7-tetrahydro-1H-indazole dihydrochloride and dl-5-dimethylamino-4,5,6,7-tetrahydro-2H-indazole dihydrochloride] | 33% | 5 turns | 73% | 31% | 30% |  |  |  |  |  |  | 
3 | CCCN(CCC)C1CCc2n[nH]cc2C1 (racemic) [dl-5-di(n-propyl)amino-4,5,6,7-tetrahydro-1H(and 2H)-indazole dihydrochloride] | 67% | 48 turns | 94% | 1% | 66% | 33% | 6 turns | not fatal | not fatal | produces some undesirable side effects |  | 
4 | CCCN(CCC)C1CCc2cn[nH]c2C1 (racemic) [dl-6-di-(n-propyl)amino-4,5,6,7-tetrahydro-1H(and 2H)-indazole dihydrochloride] | 100% | 98 turns |  | 31% |  | 0% |  |  |  |  | 50% | 30 turns
